Patent publication US11819257B2, “Compositions, treatment systems and methods for improved cooling of lipid-rich tissue” (Zeltiq Aesthetics, Inc., priority 2014, dated 2023)

Test system: skin at abdominal treatment sites
Assay: Clinical detection of freeze events during abdominal CoolSculpting cooling treatment after pre-treatment with cryoprotectant and mechanical stimulation
Assay type: in vivo, human
Details: patients, 14 total cycles at −15° C. applicator set point, 60 minute cycle, 3 cc topical, brushed for 2 minutes before cooling
Text: This section describes an example of the clinical use of pre-treating the skin of a patient at a treatment site with mechanical stimulation in the presence of topically applied cryoprotectant prior to applying cooling treatment for affecting subcutaneous lipid-rich cells. Additional embodiments of the present technology may be practiced with features similar to or different than those described with respect to this example. Among other features of the present technology, this example illustrates that mechanical stimulation in the presence of cryoprotectant prior to cooling treatment may have utility in the prevention of freezing events or damage when cooling subcutaneous lipid-rich tissue for aesthetic or health-related reasons. Thirteen patients scheduled for abdominoplasty where offered to undergo a CoolSculpting® treatment on abdominal treatment sites. Each patient underwent two CoolSculpting® treatment sessions having a 60 minute cycle time and a −15° C. applicator temperature set point. The vacuum was set at 60 per typical recommended settings and a standard CoolSculpting® gel pad and liner were used per instructions. Six patients were assigned to a control group and had no pre-treatment performed prior to the CoolSculpting® treatment. […] Freeze events were detected using a freeze detection algorithm such as that described in U.S. Pat. No. 8,285,390.

## CC(O)CO (centres unmarked) [100% PG, propylene glycol]
  Probability of Freeze Event: 0%
Freeze detection algorithm
  Freeze Events: 0
